pEC50: −log10 of the molar value. Like-named read-outs stand apart in the source and are kept apart here.
Tests used:
[1] = test system: P. falciparum W2 (chloroquine and pyrimethamine resistant); experiment: in vitro antimalarial activity against W2; format: cell-based; conditions: for pEC50: Plasmodium falciparum; for fold decrease in antimalarial activity: W2, compared to compound 5; for times less active against W2: in comparison to reference compound 17; for antimalarial activity in words: W2
[2] = test system: P. berghei; conditions: rodent malaria models; cited from earlier work
[3] = test system: P. falciparum TM90-C2B (chloroquine, mefloquine, pyrimethamine and atovaquone resistant); experiment: in vitro antimalarial activity against TM90-C2B; format: cell-based; conditions: for fold decrease in antimalarial activity / antimalarial activity in words: TM90-C2B; for fold decrease in antimalarial activity: compared to compound 5; for fold more potent against TM90-C2B: compared to compound 27; for pEC50: Plasmodium falciparum

O=C1C(O)=C([C@H]2CC[C@H](c3ccc(Cl)cc3)CC2)C(=O)c2ccccc21 [ATO, atovaquone, reference compound]
pEC50 ([1]; W2, read-out: EC50 W2, Table 1, PEQ analogs): 9.28 | pEC50 ([1]; W2, read-out: EC50 W2, Table 2, 3-aryl PEQs): 9.28

CCCCc1cc2c(=O)c(C(=O)OC)c[nH]c2cc1OCCOc1ccccc1 [Compound 5, reference compound]
ED50, causal prophylactic and blood schizonticidal activity [2]: 0.05 mg/kg | fold stronger inhibition of W2 than TM90-C2B ([1]; W2 versus TM90-C2B): approximately 220 fold

COC(=O)c1c[nH]c2cc(OC)c(Cl)cc2c1=O [Compound 14]
fold decrease in antimalarial activity [1]: ≥ 70 fold | fold decrease in antimalarial activity [3]: ≥ 70 fold

CCCCc1cc2c(=O)cc(C)[nH]c2cc1OCCOc1ccccc1 [Compound 15]
fold decrease in antimalarial activity [1]: 4000 fold | fold decrease in antimalarial activity [3]: 4 fold

CCc1c(C)[nH]c2cc(OCCOc3ccccc3)c(C)cc2c1=O [Compound 18]
fold more potent against TM90-C2B [3]: approximately 3 fold

CCc1c(C)[nH]c2cc(OCCOc3ccccc3)c(OC)cc2c1=O [Compound 19]
fold more potent against TM90-C2B [3]: approximately 3 fold

CCc1c(C)[nH]c2cc(OCOC)c(Cl)cc2c1=O [Compound 20]
times less active against W2 [1]: approximately four-fold less active

CCc1c(C)[nH]c2cc(OCCCN3CCN(c4ccccc4)CC3)c(Cl)cc2c1=O [Compound 26]
times less active against W2 [1]: approximately four-fold less active

CCCCc1cc2c(=O)c(-c3ccncc3)c(C)[nH]c2cc1OCCOc1ccccc1 [Compound 32]
antimalarial activity in words [1]: moderate activity in low μM or high nM range | antimalarial activity in words [3]: moderate activity in low μM or high nM range

CCCCc1cc2c(=O)c(-c3cccnc3)c(C)[nH]c2cc1OCCOc1ccccc1 [Compound 33]
antimalarial activity in words [1]: moderate activity in low μM or high nM range | antimalarial activity in words [3]: moderate activity in low μM or high nM range

CCCCc1cc2c(=O)c(-c3c(C)noc3C)c(C)[nH]c2cc1OCCOc1ccccc1 [Compound 43]
antimalarial activity in words [3]: approximately five times less potent

C[C@H]1[C@@H](O)O[C@@H]2O[C@@]3(C)CC[C@H]4[C@H](C)CC[C@@H]1[C@@]24OO3 [DHA, Dihydroartemisinin, reference compound]
pEC50 ([1]; W2, read-out: EC50 W2): 8.74 | pEC50 ([3]; TM90, read-out: EC50 TM90-C2B, Table 1, PEQ analogs): 9.05 | pEC50 ([3]; TM90, read-out: EC50 TM90-C2B, Table 2, 3-aryl PEQs): 9.05
